In PubChem BioAssay AID1552 (Sanford-Burnham Center for Chemical Genomics, 2009) one finds Kd data, which are given here for 105 compounds.

In the assay the target is Ubiquitin-conjugating enzyme E2 N (Homo sapiens) (UniProt P61088). The assay is described as follows: UBE2N binders by NMR, biophysical, purified protein (AID 1552). The settings on record: NMR binding to purified UBE2N.

Calls of active or inactive are those of the source. How the calls were made is not given here.

Chain of Ubiquitin-conjugating enzyme E2 N (Homo sapiens) (P61088 whole entry, looked up): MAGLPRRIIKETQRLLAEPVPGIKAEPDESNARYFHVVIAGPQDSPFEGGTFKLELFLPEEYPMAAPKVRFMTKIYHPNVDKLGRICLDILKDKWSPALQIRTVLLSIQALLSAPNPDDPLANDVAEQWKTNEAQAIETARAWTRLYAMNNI

One may read the Kd as a measure of binding affinity in units of concentration. As for `O=c1[nH]nc(Cc2ccncc2)c2ccccc12`, the Kd was > 4 mM (inactive). In the case of `NC12CC3CC(C1)CC(C(=O)O)(C3)C2`, the Kd was > 4 mM (inactive). For the compound `Cc1nnc(Nc2cccnc2)[nH]c1=O`, the Kd is > 4 mM (inactive). As for `CC(=O)Oc1cc(OC(C)=O)c2c(c1)O[C@H](c1ccc(OC(C)=O)c(OC(C)=O)c1)[C@H](OC(C)=O)C2`, the Kd was > 4 mM (inactive). For `Nc1ccc(N2CCOCC2)c(Cl)c1`, the Kd is > 4 mM (inactive). With `CCN1C(=O)c2cccc3c(S(N)(=O)=O)ccc1c23`, the Kd was > 4 mM (inactive). With `CSc1nc(C)cc(-n2ccc(=O)[nH]c2=O)n1`, the Kd is > 4 mM (inactive). With `COc1cc2c(cc1OC)[C@@H]1C(=O)c3ccc(O)c(CC=C(C)C)c3O[C@@H]1CO2`, the Kd was > 4 mM (inactive). `CC1/C(=N/O)C[C@@H]2C[C@H]1C2(C)C` (stereo not given in full): the Kd is > 4 mM (inactive). As for `Cc1cc(=O)c2ccccc2n1CC(N)=O`, the Kd was > 4 mM (inactive). In the case of `O=c1[nH]c2sc3c(c2c2nncn12)CCCC3` it was > 4 mM (inactive); in that of `Nc1cc(=O)[nH]c(=S)n1-c1cccc(C(F)(F)F)c1`, > 4 mM (inactive); in that of `Nc1nonc1-c1nc2ccccc2[nH]1`, > 4 mM (inactive). As for `Cc1cc(=O)n2nc(-c3ccccc3)sc2n1`, the Kd is > 4 mM (inactive). With `Nc1oncc1-c1ccccn1`, the Kd is > 4 mM (inactive).

Take `Cc1nn(-c2ccccc2C(=O)O)c(=O)c2ccccc12`: the Kd was > 4 mM (inactive).

As to `Nn1c(CN2CCCCC2)nc2ccccc2c1=O`, the Kd is > 4 mM (inactive). As for `Nc1ccc2c(c1)OCCO2`, the Kd was > 4 mM (inactive).

In the case of `O=C(O)c1ccnc2ccccc12`, the Kd was > 4 mM (inactive). As to `CC(=O)Oc1ccc2c(c1C(C)C)CCC1C(C)(C)CCC[C@]21C` (stereo not given in full), the Kd was > 4 mM (inactive).

For `Cn1c2c(c(=O)n(C)c1=O)CN(Cc1ccco1)CN2`, the Kd was > 4 mM (inactive). With `OCc1ccc2c(c1)OCCO2`, the Kd was > 4 mM (inactive). For `O=C(Nc1ccc2c(c1)OCCO2)c1c(F)cccc1F`, the Kd was > 4 mM (inactive). Regarding `Cc1ccc(/C=N/n2c(C)nnc2C)cc1`, the Kd was > 4 mM (inactive).

Turning to `Oc1ccc2nonc2c1`, the Kd is > 4 mM (inactive). With `COc1ccc([C@@H]2CC(=O)c3c(O)cc(O)cc3O2)cc1O`, the Kd is > 4 mM (inactive). As to `CC1(C(=O)O)CC2C=CC1C2` (stereo not given), the Kd was > 4 mM (inactive). On to `Cc1occc1C(=O)Nc1nccs1`, for which the Kd is > 4 mM (inactive). To `O=c1nc(C(F)(F)F)nc2ccccn12` belongs > 4 mM (inactive); to `NC(c1ccccc1)c1ccccn1` (stereo not given), > 4 mM (inactive). In the case of `OCCNC(=S)Nc1ccccc1` it was > 4 mM (inactive). Consider `Cc1c(C(=O)Nc2ccccn2)oc2ccccc12`, for which the Kd is > 4 mM (inactive).

Consider `O=c1ccnc(Nc2ccccc2O)[nH]1`, for which the Kd is > 4 mM (inactive). Take `Cc1ncc(C(=O)O)c(-c2ccccc2)n1`: the Kd is > 4 mM (inactive).

For the compound `O=C(O)CCCC(=O)Nc1nccs1`, the Kd was > 4 mM (inactive). With `O=C(NCCO)c1ccccc1I`, the Kd is > 4 mM (inactive). In the case of `COc1ccc(-c2cn[nH]c2N)c(OC)c1` it was > 4 mM (inactive); in that of `NC(=O)CSCc1c(Cl)cccc1Cl`, > 4 mM (inactive); in that of `O=C(CC1SC(=O)NC1=O)Nc1ccccc1` (stereo not given), > 4 mM (inactive). As for `CC(=O)NC(=S)Nc1cccc(C(=O)O)c1C`, the Kd is > 4 mM (inactive). To `CCOC(=O)c1c(C)n([O-])c2ccccc2[n+]1=O` belongs > 4 mM (inactive); to `O=C(c1ccccc1)c1ccccc1C(=O)N1CCCC1`, > 4 mM (inactive). Turning to `O=C(/C=C(\O)c1ccccc1)c1ccccc1O`, the Kd was > 4 mM (inactive).

For the compound `NC(=O)CC(=O)NC12CC3CC(CC(C3)C1)C2`, the Kd is > 4 mM (inactive).

On to `NC(=O)c1ccc2c(c1)OCO2`, for which the Kd is > 4 mM (inactive). For the compound `O=C1C=C(Nc2ccccc2O)c2ccccc2C1=O`, the Kd is > 4 mM (inactive). `Cn1c(NCc2ccco2)nc2ccccc21`: the Kd is > 4 mM (inactive). In the case of `Cn1[nH]c2nc3[nH]n(C)c(=O)c3c(-c3ccccc3)c2c1=O` it was > 4 mM (inactive). As for `NCC1CN(Cc2ccccc2)CCO1` (stereo not given), the Kd is > 4 mM (inactive).

For `O=C(O)C1CC(=O)N(Cc2ccco2)C1` (stereo not given), the Kd is > 4 mM (inactive).

Consider `COc1cccc2onc(N)c12`, for which the Kd is > 4 mM (inactive). Regarding `OCc1cccc2nonc12`, the Kd is > 4 mM (inactive). Turning to `Cc1ccc2cccc(OC(=O)N3CCCC3)c2n1`, the Kd is > 4 mM (inactive). With `CC(C)n1nnc2cc(C(=O)O)ccc21`, the Kd was > 4 mM (inactive). `COc1c(-c2ccccc2)oc2c(OC)cccc2c1=O`: the Kd is > 4 mM (inactive). To `COCc1cc(=O)oc2cc(O)c(Cl)cc12` belongs > 4 mM (inactive); to `C=C[C@H]1CN2CC[C@H]1C[C@@H]2[C@@H](O)c1ccnc2ccc(OC)cc12`, > 4 mM (inactive). On to `COc1ccc(S(=O)(=O)NCCO)cc1`, for which the Kd is > 4 mM (inactive). As for `CCOc1ccc(-c2c(=O)n(O)c3ccccc3[n+]2[O-])cc1`, the Kd was > 4 mM (inactive).

Take `Cc1ccccc1NS(=O)(=O)c1ccc(F)cc1`: the Kd was > 4 mM (inactive). Turning to `CC(=O)c1c(C)n(O)c2ccc3nonc3c12`, the Kd was > 4 mM (inactive).

As to `Cc1cc(C(=O)Nc2sc(C)c(C)c2C#N)c(C)o1`, the Kd was > 4 mM (inactive). `Cn1cnc2cc(NC(=O)c3ccco3)ccc21`: the Kd was > 4 mM (inactive). Consider `CC(=O)O[C@H]1CC[C@@]2(C)C(C[C@@H](OC(C)=O)[C@@]3(C)C4=CC(=O)O[C@@H](c5ccoc5)[C@]4(C)CCC23)C1(C)C` (stereo not given in full), for which the Kd was > 4 mM (inactive). To `C(=Nn1cnnc1)c1ccccc1` belongs > 4 mM (inactive). In the case of `CC12CN(CC#N)CC(C)(CN(CC#N)C1)C2=O`, the Kd is > 4 mM (inactive).

Take `O=C(c1cccc(C(F)(F)F)c1)N1CCCC1`: the Kd is > 4 mM (inactive). To `O=C(/C=C/C=C/c1ccc2c(c1)OCO2)N1CCCCC1` belongs > 4 mM (inactive); to `NC(=O)CSc1nc2ccccc2c(=O)[nH]1`, > 4 mM (inactive). Turning to `Cc1scc(C(=O)Nn2cnnc2)c1-c1ccccc1`, the Kd was > 4 mM (inactive). As for `CC(=O)NN1C(=O)/C(=C\c2ccc(O)cc2)SC1=S`, the Kd is > 4 mM (inactive). Take `CN(C)C(=O)N1CCN(C(=O)c2ccco2)CC1`: the Kd was > 4 mM (inactive). To `C=CCCCCCCCCCCCC(O)CC(O)COC(C)=O` (stereo not given) (tested in a mixture with another compound) belongs > 4 mM (inactive); to `COCc1cc(C)nc2sc(C(=O)OC)c(N)c12`, > 4 mM (inactive). To `CC(=O)Nc1nc(-c2cccs2)cs1` belongs > 4 mM (inactive); to `COc1cc(OC)c2c(=O)c(-c3ccccc3)coc2c1`, > 4 mM (inactive); to `CCOc1ccccc1C(=O)NC1=NCCS1`, > 4 mM (inactive). Regarding `O=C(O)c1ccc(N2CCOCC2)cc1`, the Kd is > 4 mM (inactive). For the compound `Cc1ccccc1-n1c(N)cc(=O)[nH]c1=S`, the Kd is > 4 mM (inactive). For the compound `CCNS(=O)(=O)c1ccc(OC)c(C)c1`, the Kd was > 4 mM (inactive). Turning to `COC(=O)c1ccc2nc[nH]c2c1`, the Kd is > 4 mM (inactive). Take `COC(=O)c1ccccc1NC(=O)c1cc[n+]([O-])cc1`: the Kd was > 4 mM (inactive). Regarding `NC(=O)CN1CCCCCC1=O`, the Kd is > 4 mM (inactive).

Turning to `CC(=O)OC/C=C(\C)CC/C=C(\C)CC/C=C(\C)CC/C=C(\C)CC/C=C(\C)CC/C=C(\C)CC/C=C(\C)CC/C=C(\C)CCC=C(C)C`, the Kd is > 4 mM (inactive). As for `O=S(=O)(c1ccc(F)c(Cl)c1)N1CCCC1`, the Kd was > 4 mM (inactive). Take `OC1CSc2ncnn2C1` (stereo not given): the Kd is > 4 mM (inactive). On to `O=C(O)Cn1cc(C(F)(F)F)ccc1=O`, for which the Kd was > 4 mM (inactive). Take `OC1CC2CCC1C2` (stereo not given): the Kd was > 4 mM (inactive).

In the case of `COc1cc(O)c2c(=O)cc(-c3ccc(OC)c(-c4c(O)cc(O)c5c(=O)cc(-c6ccc(O)cc6)oc45)c3)oc2c1`, the Kd is > 4 mM (inactive). As for `Cn1c2ccccc2n2c(=S)[nH]nc12`, the Kd was > 4 mM (inactive).

Turning to `O=C(NCC1CCNCC1)c1ccccn1`, the Kd is > 4 mM (inactive). As to `Cc1ccc(-n2cnnn2)c2cccnc12`, the Kd was > 4 mM (inactive). For `COC(=O)c1ccc(N2CCCC2)nc1`, the Kd was > 4 mM (inactive). In the case of `Cn1c(SCC(N)=O)nnc1-c1cccnc1` it was > 4 mM (inactive). For `Cn1cnnc1SCC(=O)Nc1ccccc1`, the Kd is > 4 mM (inactive). Take `NCCc1nc2ccccc2[nH]1`: the Kd is > 4 mM (inactive). Consider `CNC(=O)c1cc(S(=O)(=O)N(C)C)ccc1Cl`, for which the Kd was > 4 mM (inactive). Regarding `CC(=O)c1cc2c(s1)SCC(=O)N2`, the Kd is > 4 mM (inactive). With `Cc1ccccc1C(=O)Nc1cccc(N)c1`, the Kd is > 4 mM (inactive). As for `Cn1c(=O)c2c(ncn2C)n(C)c1=O`, the Kd is > 4 mM (inactive). Turning to `Cn1c(=O)n(-c2cccc(Cl)c2)c(=O)n1C`, the Kd is > 4 mM (inactive). As to `CC(=O)NC(C)C12CC3CC(CC(C(=O)O)(C3)C1)C2` (stereo not given), the Kd is > 4 mM (inactive). With `NCc1ccc(-n2cccc2)cc1`, the Kd was > 4 mM (inactive).

For the compound `O=C(O)CCC(=O)Nc1nccs1`, the Kd is > 4 mM (inactive).

Turning to `O=C1CC(=O)N(c2ccccc2)c2ccccc21`, the Kd is > 4 mM (inactive).
